Literature values, collected in patent US9358210B2, “Sustained-release pellets containing tacrolimus as an active ingredient” (priority 2010, dated 2016).

Question: With `C=CC[C@@H]1/C=C(\C)C[C@H](C)C[C@H](OC)[C@H]2O[C@@](O)(C(=O)C(=O)N3CCCC[C@H]3C(=O)O[C@H](/C(C)=C/[C@@H]3CC[C@@H](O)[C@H](OC)C3)[C@H](C)[C@@H](O)CC1=O)[C@H](C)C[C@@H]2OC` [tacrolimus, 17-allyl-1,14-dihydroxy-12-[2-(4-hydroxy-3-methoxycyclohexyl)-1-methylvinyl]-23,25-dimethoxy-13,19,21,27-tetramethyl-11,28-dioxa-4-azatricyclo[22.3.1.0]octacos-18-ene-2,3,10,16-tetraone] as the compound, how does the solubility in water read?
Answer: 1 to 2 µg/mL
